Patent US7405299B2, “Compounds as pharmaceutical agents” (Eli Lilly and Company, priority 2003, dated 2008)

SMILES | melting point [°C]
c1ccc(-c2nn3c(c2-c2cccc4nsnc24)CCC3)nc1 [Example 4, 4-[2-(Pyridin-2-yl)-5,6-dihydro-4H-pyrrolo[1,2-b]pyrazol-3-yl]-benzo [2,1,3]thiadiazole] | 140 to 142
c1ccc(-c2nn3c(c2-c2ccc4nsnc4c2)CCC3)nc1 [Example 5, 5-[2-(Pyridin-2-yl)-5,6-dihydro-4H-pyrrolo[1,2-b]pyrazol-3-yl]benzo[2,1,3]thiadiazole] | 184 to 186
c1ccc(-c2nn3c(c2-c2nc4ccccc4[nH]2)CCC3)nc1 [Example 10, 2-[2-(Pyridin-2-yl)-5,6-dihydro-4H-pyrrolo[1,2-b]pyrazol-3-yl]-1H-benzoimidazole] | 172 to 175

Other lines, results leading:

melting point [°C] | SMILES
170 to 172 | c1ccc(-c2nn3c(c2-c2nc4ncccc4[nH]2)CCC3)nc1 [Example 8, 2-[2-(Pyridin-2-yl)-5,6-dihydro-4H-pyrrolo[1,2-b]pyrazol-3-yl]-1H-imidazo[4,5-b]pyridine]
201 to 203 | c1ccc(-c2nn3c(c2-c2nc4cnccc4[nH]2)CCC3)nc1 [Example 9, 2-[2-(Pyridin-2-yl)-5,6-dihydro-4H-pyrrolo[1,2-b]pyrazol-3-yl]-1H-imidazo[4,5-c]pyridine]
182 to 184 | c1ccc(-c2nn3c(c2-c2nc4ncccc4o2)CCC3)nc1 [Example 11, 2-[2-(Pyridin-2-yl)-5,6-dihydro-4H-pyrrolo[1,2-b]pyrazol-3-yl]-oxazolo[4,5-b]pyridine]
180 to 184 | c1ccc(-c2nn3c(c2-c2cncc4cccnc24)CCC3)nc1 [Example 80a, 8-(2-Pyridin-2-yl-5,6-dihydro-4H-pyrrolo[1,2-b]pyrazol-3-yl)-[1,6]naphthyridine]
